From US20220257552A1, “METHODS OF PRESCREENING AND TREATING BREAST CANCERS WITH SELECTIVE ANDROGEN RECEPTOR MODULATORS” (priority 2021, published 2022) come the findings set out here.

For series [1], the system named is metastatic or locally advanced ER+/AR+ breast cancer. Description: Phase 2 trial G200802, 9 mg or 18 mg daily, ER+/AR+ breast cancer. The note with it: for ORR / Best overall objective tumor response, CR (patients) / Best overall objective tumor response, PR (patients): post-hoc; for Best overall objective tumor response, CR (patients) / Best overall objective tumor response, PR (patients): all evaluable patients. It is filed as in vivo, human. The method, then: Each dose arm was treated independently, and each assessed for efficacy using Simon's two-stage (optimal) design (Simon R. Optimal two-stage designs for Phase 2 clinical trials. Controlled Clinical Trials 1989; 10: 1-10). Subjects were randomized in a 1:1 fashion to one of the two dose arms.
Randomization was stratified by subjects presenting with bone only metastases and all other subjects, and further by setting of immediately preceding therapy (adjuvant setting or metastatic setting) in order to balance the proportion of subjects with these presenting features in each dose arm.
Thirty-six to eighty-eight (36-88) subjects with centrally confirmed AR+ who received at least one dose of study drug (evaluable subjects) were needed for primary efficacy analysis purposes and were a subset of the full analysis set (FAS). Fifty patients in the 9 mg cohort and 52 patients in the 18 mg cohort met these criteria. […] Other statistical parameters that were part of the sample size calculation are α=0.025 (one-sided) and power=90%. The first stage in each study arm was assessed among the first 18 evaluable subjects. Greater than 3/18 subjects achieved CB (defined as CR, PR, or SD) at week 24, and both arms proceeded to the second stage of recruitment up to a total of 44 evaluable subjects per arm. Otherwise, the arm would have been discontinued for lack of efficacy. Statistical significance, i.e., rejection of the null hypothesis of an unacceptably low CBR of ≤10% in favor of the alternative hypothesis that indicated the higher rate, ≥30%, was more likely, would be declared if at least 9/44 subjects achieved CB at week 24 in that arm.
These patients on the study had measurable disease at baseline and an AR staining prior to entry into the study. The radiographic imaging in this patient population was done every 12 weeks (2.7 months). Therefore, the minimum radiographic progression free survival (rPFS) that could be determined is approximately 2.7 months. 90% of the patients in the study had previously received non-endocrine based chemotherapy. The patients in this study had failed an average of 2 prior treatment lines for metastatic disease (range=0-5). FIG. 43 provides a scatterplot for the patients in this study with regard to the correlation between % AR-positive staining at baseline (% AR staining) and rPFS. […] However, in patients with greater than or equal to 40% AR-positive staining, the rPFS was delayed to variable extents (scatter plot pattern) in many to most cases. A positive correlation between rPFS and % AR staining was seen above the threshold of 40% AR staining. To explore this positive correlation further, several subgroups of AR % staining were defined and analyzed for metrics of efficacy, as shown in Table 14.

In series [2] the test system is MCF-7 cells expressing AR. As to the kind of experiment: MCF-7-AR cell viability (SRB). The note with it: 6 days. It is filed as cell-based. The method, then: After 6 days of treatment, cells were harvested, and the number of cells was counted. […] Medium was changed after 3 days and re-treated. Cells were fixed after 6 days of treatment and the cell viability was measured by SRB assay. […] Medium was changed, and the cells were re-treated on days 4 and 7. Medium was collected, pooled from triplicates, and stored in −80° C. After 10 days of treatment, cells were fixed, and cell viability was measured using SRB. MCF-7 cells stably transfected with GFP (MCF-7-GFP) were plated in growth medium. Twenty-four hours after plating, cells were fed with the conditioned medium obtained from patient-derived fibroblasts as indicated above. Cells were fed for 10 days with conditioned medium, with medium changed on days 4 and 7. After 10 days of treatment, cells were fixed, and the viability was measured by SRB assay. […] AR-positive, but ER-negative HCI-9 PDX was surgically implanted as 1 mm^3 fragments under the mammary fat pad in NSG mice (n=8-10/group). […] Tumor volume was measured thrice weekly. […] ER-α from HCI-13 was cloned into pCR3.1 vector. […] Values are expressed as average±S.E. from n=3-4/data point.
Cells were plated at varying densities in growth medium in 96 well plates. Cells were treated as indicated in the figures and viability measured using sulforhodamine B (SRB) or the number of cells counted using Coulter counter.

The test system of series [3] is HCI-13 PDX. Description: HCI-13 (HCI-013) patient-derived xenograft in NSG mice. It is filed as in vivo. The note with it: 10 mpk p.o. The method, then: HCI-013 tumor pieces (1 mm^3) were implanted surgically (one per mouse) under the skin on the flanks of NSG mice. Tumors were allowed to grow and reach approximately 100 mm^3 volume (1*W*W*0.526). […] Tumor volume was measured weekly and represented as % change in tumor volume. Mice were sacrificed, tumors weighed, and stored for further analysis.
All animal protocols were approved by The University of Tennessee Health Science Center (UTHSC) Institutional Animal Care and Use Research Committee. Xenograft experiments were performed as previously published (Narayanan et al. (2014) PLoS One 9, e103202). Briefly, 3 million MCF-7 cells were suspended in 0.05 ml MEM+10% FBS and 0.05 ml Matrigel/nude mouse and were injected subcutaneously. Once the tumor size reached 100-200 mm^3, the animals were randomized and treated orally with the indicated drugs formulated in DMSO:PEG-300 (15:85). HCI-7, HCI-9, and HCI-13 PDXs were gifts kindly donated by Dr. Alana Welm (Huntsman Cancer Institute, Salt Lake City, Utah). HCI PDX tumor fragments (1 mm^3) were surgically implanted under the mammary fat pad in female NOD SCID Gamma (NSG) mice. Tumor volume was measured twice weekly for MCF-7 xenograft and once or twice weekly for HCI PDXs. At the end of the study, animals were sacrificed and tumors were excised, weighed, and stored for various analyses.

Regarding `C[C@](O)(COc1ccc(C#N)cc1)C(=O)Nc1ccc(C#N)c(C(F)(F)F)c1` [Formula IX, (S)—N-(4-Cyano-3-(trifluoromethyl)phenyl)-3-(4-cyanophenoxy)-2-hydroxy-2-methylpropanamide], the “responders with duration of response ≥6 months” value in series [1] (9 mg) stood at 67%. Besides, in series [1] (9 mg), the “responders with duration of response ≥12 months” value is listed as 25%. Also, the “Quality of life assessments” value in series [1] (9 mg and 18 mg cohorts, p=0.002) is “significant improvement from baseline”. Also, in series [1] (9 mg and 18 mg doses), the tolerability entry is “well tolerated”. Moreover, in series [1] (9 mg arm, 3 patients who failed palbociclib), the “patients with complete response” value came to 33%. Also, the “Median duration of clinical benefit” value in series [1] (9 mg group) is listed as “not reached”; in series [1] (18 mg group (11 months-16.5 months)), 14.1 months. Besides, the rPFS came out at 2.72 months in series [1] (9 mg, AR nuclei staining <40%) and 5.47 months in series [1] (9 mg, AR nuclei staining ≥40%). Further, the ORR amounted to 0% in series [1] (9 mg, AR nuclei staining <40% (0/22)) and 48% in series [1] (9 mg, AR nuclei staining ≥40% (12/25)). Further, the “Best overall objective tumor response, CR (patients)” value in series [1] (9 mg) was found to be 3; in series [1] (18 mg), 1. Besides, the “Best overall objective tumor response, PR (patients)” value in series [1] (9 mg) is given as 8; in series [1] (18 mg), 5. Also, the “median duration of response” value in series [1] (9 mg, patients with objective tumor response, range 2.73 to >27.83) came to 8.18 months. The response rate in series [1] (18 mg arm, 6 patients who failed palbociclib) was 33%. Moreover, in series [1] (progressed on estrogen blocking agents and CDK 4/6 inhibitor, 4 patients), the “objective response in ≥60% AR subgroup” value was found to be 75%. Also, the “patients with an objective response” value in series [1] (progressed on estrogen blocking agents and CDK 4/6 inhibitor, AR ≥40% (7 patients)) is reported as 3 patients. For the same molecule, the “proliferation / cell viability” value in series [2] is on record as “inhibited proliferation”. The “tumor weight at sacrifice” value in series [3] is on record as “almost complete inhibition of tumor”.
